US20230026789A1, “METHODS, SYSTEMS, AND TOOLS FOR LONGEVITY-RELATED APPLICATIONS” (SPRING DISCOVERY, INC., priority 2020, published 2023)
Counter-ions that a name gives are not always drawn.

Columns and labels:
[1] = tested on: T cells in rVSV-ΔG-mCherry-infected PBMCs; test: On-age and off-age scores from T-cell image embeddings; assay type: cell-based, human; conditions: T cells from older donors vs untreated controls
late stage COVID-19 = conditions: cited from earlier work
[2] = tested on: rVSV-ΔG-mCherry-infected PBMCs from older donors; assay type: cell-based, human
[3] = tested on: rVSV-infected PBMCs from older donors; assay type: cell-based, human
[4] = tested on: T cells in rVSV-ΔG-mCherry-infected PBMCs; assay type: cell-based, human
[5] = tested on: T cells in rVSV-ΔG-mCherry-infected PBMCs; assay type: cell-based, human; remark: listed apart in the source
[6] = tested on: rVSV-ΔG-mCherry-infected PBMCs

Compound | on-age score (distance from young controls) [1] | patients who lowered their oxygen intake (late stage COVID-19; 15 of 20 late stage COVID-19 patients) [%] | patients with lung lesion opacity absorbed on CT scans (late stage COVID-19; 19 patients) [%] | fever after treatment (late stage COVID-19; within a few days after treatment) | IL-1β level vs old untreated control PBMCs [2] | MCP1 level vs old untreated control PBMCs [2] | TNFα level vs old untreated control PBMCs [2] | off-age effects (change orthogonal to age distances) [1] | outcome of screen ranked by immune aging score and COVID-19 cytokine score [3] | percentage of reticular T-cell mitochondria [4] | T-cell age score / aging model readout vs old untreated controls [5] | less T cells relative to vehicle-only controls [6] [%] | more dead and infected monocytes relative to vehicle-only controls [6] [%] | percentage of T cells [6] | percentage of dead cells and infected monocytes [6]
COC(=O)/C=C/C(=O)OC [dimethyl fumarate, reference compound] | did not improve |  |  |  |  |  |  |  |  |  |  |  |  |  | 
Tocilizumab: IL-6 targeting therapy tested in late stage COVID-19 |  | 75.0 | 90.5 | returned to normal |  |  |  |  |  |  |  |  |  |  | 
CC(C)[C@]12O[C@H]1[C@@H]1O[C@@]13[C@@]1(C)CCC4=C(COC4=O)[C@@H]1C[C@@H]1O[C@@]13C2=O [Triptonide] | significantly shifted |  |  |  | significant differences at one or more doses | significant, dose-dependent reduction | significant differences at one or more doses | significant | identified as a therapy with potential for rejuvenating the aging immune system | dose-dependent decrease | from an older phenotype to a younger phenotype | 19 | 21 | decrease | significant increase
